According to ChEMBL document CHEMBL1129173, “New class of potent ligands for the human peripheral cannabinoid receptor” (Bioorg Med Chem Lett, 1996):

Columns and labels:
Cannabinoid receptor 2 = Cannabinoid receptor 2 (Homo sapiens, UniProt P34972); experiment: Evaluated for binding affinity against recombinant human peripheral cannabinoid receptor 2
Cannabinoid receptor 1 = Cannabinoid receptor 1 (Homo sapiens, UniProt P21554); experiment: Evaluated for binding affinity against recombinant human central cannabinoid receptor 1
Chain of Cannabinoid receptor 1 (P21554 whole entry): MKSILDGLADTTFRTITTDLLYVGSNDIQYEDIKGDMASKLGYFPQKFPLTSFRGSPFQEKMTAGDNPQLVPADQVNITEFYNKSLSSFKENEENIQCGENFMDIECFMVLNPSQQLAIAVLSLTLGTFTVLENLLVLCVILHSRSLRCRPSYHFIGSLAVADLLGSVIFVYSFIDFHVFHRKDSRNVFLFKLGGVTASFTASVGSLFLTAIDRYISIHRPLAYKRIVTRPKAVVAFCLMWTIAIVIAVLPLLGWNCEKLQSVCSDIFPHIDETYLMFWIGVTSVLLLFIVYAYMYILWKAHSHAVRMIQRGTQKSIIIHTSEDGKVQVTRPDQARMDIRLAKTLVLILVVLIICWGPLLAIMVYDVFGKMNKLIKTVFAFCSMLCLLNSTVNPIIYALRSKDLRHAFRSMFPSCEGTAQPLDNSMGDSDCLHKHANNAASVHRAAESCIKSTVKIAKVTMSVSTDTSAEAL

Chain of Cannabinoid receptor 2 (P34972 whole entry): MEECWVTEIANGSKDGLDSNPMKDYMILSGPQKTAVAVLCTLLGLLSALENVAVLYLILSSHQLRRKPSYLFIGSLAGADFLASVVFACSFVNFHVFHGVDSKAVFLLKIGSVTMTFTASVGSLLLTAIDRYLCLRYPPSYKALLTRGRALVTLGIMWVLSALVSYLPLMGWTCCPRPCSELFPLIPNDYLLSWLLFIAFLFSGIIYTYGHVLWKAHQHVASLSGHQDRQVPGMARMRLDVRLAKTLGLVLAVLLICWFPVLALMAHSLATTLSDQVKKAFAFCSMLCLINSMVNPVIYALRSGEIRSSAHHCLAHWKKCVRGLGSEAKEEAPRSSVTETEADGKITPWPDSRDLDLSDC

| Structure (SMILES) | Ki (Cannabinoid receptor 2) [nM] | Ki (Cannabinoid receptor 1) [nM] |
| --- | --- | --- |
| Cc1c(CN2CCOCC2)c2ccccc2n1-c1cccc2ccccc12 | 7840 | 6680 |
| COc1ccc2c(c1)c(CC(=O)N1CCOCC1)c(C)n2C(=O)c1cccc(Cl)c1Cl | 14 | 2040 |
| COc1ccc2c(c1)c(CC(=O)N1CCOCC1)c(C)n2C(=O)c1ccc(Cl)cc1 [INDOMETHACIN MORPHOLINYLAMIDE] | 435 | > 20000 |
| COc1ccc2c(c1)c(CC(=O)N1CCOCC1)c(C)n2C(=O)c1ccc(F)cc1Cl | 134 | 5570 |
| COc1ccc2c(c1)c(CC(=O)O)c(C)n2C(=O)c1ccc(Cl)cc1 [INDOMETHACIN] | > 20000 | – |
| COc1ccc2c(c1)c(CC(=O)N1CCOCC1)c(C)n2C(=O)c1c(Cl)cccc1Cl | 59 | 2550 |
| COc1ccc2c(c1)c(CCN1CCOCC1)c(C)n2C(=O)c1cccc(Cl)c1Cl | 12 | 1920 |
| COc1ccc2c(c1)c(CC(=O)N1CCOCC1)c(C)n2Cc1cccc(Cl)c1Cl | 1050 | > 20000 |
| COc1ccc2c(c1)c(CC(=O)N1CCOCC1)c(C)n2C(=O)c1cccc(Cl)c1 | 354 | 16800 |
| Cc1c(CCN2CCOCC2)c2ccccc2n1C(=O)c1cccc(Cl)c1Cl | 27 | 3190 |
| Cc1c(CN2CCOCC2)c2ccccc2n1C(=O)c1cccc2ccccc12 | 8.5 | 877 |
| COc1ccc2c(c1)c(CC(=O)N1CCOCC1)c(C)n2C(=O)c1ccccc1Cl | 69 | 3600 |
| COC(=O)Cc1c(C)n(C(=O)c2ccccc2Cl)c2ccc(OC)cc12 | 397 | 1720 |
| Cc1c(CCN2CCOCC2)c2ccccc2n1C(=O)c1cccc2ccccc12 | 216 | 2180 |
| COc1ccc2c(c1)c(CN1CCOCC1)c(C)n2C(=O)c1cccc(Cl)c1Cl | 22 | 3360 |
| COC(=O)Cc1c(C)n(C(=O)c2cccc3ccccc23)c2ccc(OC)cc12 | 142 | 4610 |
| COC(=O)Cc1c(C)n(C(=O)c2ccc(Cl)cc2)c2ccc(OC)cc12 | 4020 | > 20000 |
| Cc1c(C(=O)c2cccc3ccccc23)c2ccccc2n1CCN1CCOCC1 | 14 | 638 |
| COc1ccc2c(c1)c(CCN1CCOCC1)c(C)n2C(=O)c1ccc(Cl)cc1 | 213 | 10300 |
